According to patent US20040197268A1, “Method of imaging amyloid deposits using substituted rhodanine derivatives” (priority 1999, published 2004):
Where “and” joins values, the source holds several entries; their conditions need not be identical. Equal entries are not always repeated. Structures can show the parent of a compound that is named as a salt.

Experiments:
Aβ(1-40) [1] = molecular target: T1, Aβ(1-40) (Homo sapiens, UniProt P05067); assay: BASSR (Beta-Amyloid Self-Seeding Radioassay), inhibitors of self-seeded amyloid fibril growth; format: biochemical; conditions: 30 μM soluble Aβ(1-40) + 125I-labeled Aβ(1-40), pH 7.5, 37° C., 3 to 5 hours, filtration
T1 construct: Soluble Aβ(1-40) peptide (Bachem, Torrance, Calif.); purchased Bachem, Torrance, Calif
Protocol: BASSR (Beta-Amyloid Self-Seeding Radioassay)
(§1) An assay for inhibitors of self-seeded amyloid fibril growth
Assay Buffer—50 mM sodium phosphate, pH 7.5, 100 mM NaCl, 0.02% NaN3, 1 M urea (filter and store at 4° C.)
Soluble Aβ(1-40) peptide (Bachem, Torrance, Calif.)—2.2 mg/mL in deionized H2O (stored in aliquots at −20° C., keep on ice when thawed) will self-seed after 1 week storage. Typically, the solution should be stored until no lag phase is seen in the assay.
^125I-labeled Aβ(1-40)—150K-350K cpm/μL in 100% acetonitrile—0.1% trifluoroacetic acid (TFA)—1% β-mercaptoethanol (aliquots stored at −20° C.). ^125I-labeled Aβ(1-40) can be made in accordance with the procedure set forth by H. Levine, III in Neurobiol. Aging, 16:755 (1995), which is hereby incorporated by reference, or this reagent may be purchased from Amersham, Arlington Heights, Ill.
Final assay conditions: 30 μM soluble Aβ(1-40) in deionized water in assay buffer+20-50K cpm ^125I-labeled Aβ(1-40) per assay. Compound to be tested is dissolved in dimethylsulfoxide (DMSO), typically 5-50 mM stock, such that the final concentration of DMSO is <1% v/v in the assay.
Assay: Reaction mixture for 50 assays (on ice) is comprised of 0.1-0.2 μL of […] ^125I-labeled Aβ(1-40)+1 μL of soluble Aβ(1-40)+13.5 μL assay buffer per assay. The following are the amounts of the components of the reaction mixture sufficient for 50 assay wells.
1) Prepare reaction mixture above by mixing components and storing on ice.
2) Pipet 14.5 μL of reaction mixture into each of 50 wells on a polypropylene U-bottom 96-well microtiter plate on ice (Costar 3794).
(§2) 3) Add 1.7 μL of diluted compound to be tested to each well in a column of eight, including solvent control. Serial 3-fold dilutions from 1 mM (100 μM final) in assay buffer−urea=7 dilutions+zero. Each 96-well plate can therefore accommodate 11 samples+1 Congo Red control (0.039-5 μM final in 2-fold steps).
4) Seal the plate with aluminum film (Beckman 538619) and incubate for 10 minutes on ice.
5) Raise the temperature to 37° C. and incubate for 3 to 5 hours (depending on the lot of the peptide).
6) Remove the aluminum film and add 200 μL/well of ice cold assay buffer with urea, collecting the radiolabeled fibrils by vacuum filtration through 0.2 μm pore size GVWP filters in 96-well plates (Millipore MAGV N22, Bedford, Mass.). Determine the radioactivity of the filters using standard methods well-known to those skilled in the art.

Aβ(1-40) [2] = molecular target: T1, Aβ(1-40); assay: BASST (Beta-Amyloid Self-Seeding, ThioflavinT), inhibitors of self-seeded amyloid fibril growth; format: biochemical; conditions: 30 μM soluble Aβ(1-40), pH 7.5, 37° C., 3 to 5 hours, thioflavin T fluorescence
Protocol: BASST (Beta-Amyloid Self-Seeding, ThioflavinT)
as §1
Assay Buffer—50 mM sodium phosphate, pH 7.5, 100 mM NaCl, 0.02% NaN3, 1 M urea (filter and store at 4° C.).
Soluble Aβ(1-40)—2.2 mg/mL in deionized H2O (store in aliquots at −20° C., keep on ice when thawed) will self-seed after 1 week storage. Typically, the solution should be stored until no lag phase is seen in the assay.
Final assay conditions: 30 μM soluble Aβ(1-40) in deionized water in assay buffer. Compound to be tested is dissolved in DMSO, typically 5-50 mM stock, such that the final concentration of DMSO is <1% v/v in the assay.
Assay: Reaction mixture for 50 assays (on ice) comprised of 1 μL of soluble Aβ(1-40)+13.5 μL assay buffer per assay. The following are the amounts of the components of the reaction mixture that result in each of the 50 assay wells.
1) Prepare the reaction mix above by mixing the components and storing on ice.
2) Pipet […] of reaction mixture into each of 50 wells of a polystyrene U-bottom 96-well microtiter plate (Corning 25881-96) on ice.
as §2, with “[…]” for “μL”
4) Seal the plate with aluminum film and incubate for 10 minutes on ice.
5) Raise the temperature to 37° C. and incubate for 3 to 5 hours (depends on the lot of the peptide).
6) Remove the aluminum film and add 250 μL/well of 5 μM thioflavin T (ThT) [T-3516, Sigma-Aldrich] in 50 mM glycine-NaOH, pH 8.5. Read fluorescence on a plate reader (ex=440 nm/20 nm; em=485 nm/20 nm) within 5 minutes.

Aβ(1-42) = molecular target: T2, Aβ(1-42) (Homo sapiens, UniProt P05067); assay: BATYM Assay (Aβ(1-42) aggregation, Thioflavin T fluorescence); format: biochemical; conditions: Aβ 1-42 final concentration 100 μM, PBS pH 7.4, 37° C., 1 day, ThT fluorescence
T2 construct: Required Aβ(1-42)(California Peptide) was dried from its hexafluoroisopropanol (HFIP) stock solution; purchased California Peptide
Protocol: Required Aβ(1-42)(California Peptide) was dried from its hexafluoroisopropanol (HFIP) stock solution. The Aβ(1-42) was dissolved in dimethylsulfoxide (DMSO) and then mixed with phosphate buffered saline, (PBS) (pH 7.4). The mixed Aβ(1-42) solution was filtered with a 0.2 μm Omnipore membrane syringe filter (Millipore, Bedford, Mass.). The compound to be tested in DMSO (50 times concentrate) was put into each well (0.5 μL/well) of a 96-well plate. The Aβ(1-42) solution was added into each well (24.5 μL/well). The plate was centrifuged at 1,000 g for 5 minutes and incubated at 37° C. for 1 day (Aβ 1-42; final concentration 100 μM).
After incubation Thioflavin T (ThT) (30 μM) solution in glycine-NaOH buffer (pH 8.5, 50 mM) was added into each well (250 μL/well), fluorescence was measured (ex. 440/20 nm; em 485/20 nm) using a fluorescence plate reader. The inhibitory activity was calculated as the reduction of fluorescence with the following formula:
inhibition (%)={(F(Aβ)−F(Aβ+compound)}/{F(Aβ)−F(solvent+compound)}×100
The IC50s were calculated by a curve fitting program using the following equation. The data were obtained from two different experiments in triplicate.
x=concentration of tested compound (M),

[3] = molecular target: T3, beta amyloid peptide Aβ(1-40) (Homo sapiens, UniProt P05067); assay: BAPA (Beta-Amyloid Peptide Aggregation), pH 6.0; format: biochemical; conditions: Aβ(1-40) 33 μM, pH 6.0, 2 to 4 hours at room temperature, filtration
T3 construct: 0.5 mg/mL AP (140) peptide in 20% HFIP+0.1 μL/assay radioiodinated ^125I Aβ(1-40)
Protocol: BAPA (Beta-Amyloid Peptide Aggregation)
This assay is used to provide a measure of inhibition by a compound against the aggregation behavior of the beta amyloid peptide.
The purpose of this assay is to provide a higher volume method of assaying the amount of beta amyloid aggregation using an endpoint assay based on filtration. In this assay, hexafluoroisopropanol (HFIP) is used to break down the initial amyloid peptide to a monomer state and use a concentration of 33 μM which is high enough so that aggregation will occur at pH 6.0 in several hours.
β-Amyloid Peptide Aggregation, pH 6.0 (BAPA)
In a 96-well plate (Costar 3794), we add […] 50 mM Phosphate Buffer, pH 6.0, 10 μL 0.5 mg/mL AP (140) peptide in 20% HFIP+0.1 μL/assay radioiodinated ^125I Aβ(1-40) [^125I Aβ(1-40)], and 1 μL of the compound to be tested starting at 50 mM with a concentration of DMSO <1%. Then, we incubate for 2 to 4 hours at room temperature. We stop the reaction with […] of 50 mM phosphate buffer, pH 6.0, and filter it through a 0.2 μm 96-well filter plate (Millipore MAGU N22). We wash the filter plate with 100 μL of the same phosphate buffer. Aggregation was detected on a Microbeta counter after impregnating the filters with Meltilex (1450-441) and is corrected for background.

T2 sequence (P05067 672-713 limits assumed): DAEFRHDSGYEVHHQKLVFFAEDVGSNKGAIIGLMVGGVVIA
T3 sequence (P05067 672-711 limits assumed): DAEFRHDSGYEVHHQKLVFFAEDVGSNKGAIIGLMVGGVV
T1 sequence (P05067 672-711 limits assumed): as above

IC50 (Aβ(1-40) [1])	IC50 (Aβ(1-40) [2])	melting point	IC50 (Aβ(1-42))	IC50 [3]	Compound
6.5 µM and 10 µM and 6 µM	1000 nM and 800 nM	222 °C	3840 nM	–	O=C(CN1C(=O)/C(=C/c2ccc(N3CC[C@@H]4CCCC[C@H]4C3)cc2)SC1=S)NS(=O)(=O)c1ccccc1 [Example 24, (Z) N-(2-{5-[(4aS,8aR)-4(Octahydro-isoquinolin-2-yl)benzylidene]-4-oxo-2-thioxo-thiazolidin-3-yl}-acetyl)-benzenesulfonamide]
15 µM	400 nM	–	3310 nM	> 60 µM	CCCC1CCN(c2ccc(/C=C3\SC(=S)N(Cc4nnn[nH]4)C3=O)cc2)CC1 [Example 35]
6 µM	600 nM and 500 nM	125 °C	2380 nM	–	CCCCN(CCCC)c1ccc(/C=C2\SC(=S)N(CC(=O)NS(=O)(=O)c3ccc(F)cc3)C2=O)cc1 [Example 25, (Z) N-{2-[5-(4-Dibutylamino-benzylidene)-4-oxo-2-thioxo-thiazolidin-3-yl]-acetyl}-4-fluoro-benzenesulfonamide]
–	–	> 250 °C	–	–	CCCCCCN(C)c1ccc(/C=C2\SC(=S)N(CCS(=O)(=O)O)C2=O)cc1 (as salt: sodium) [Example 1, (Z) 2-{5[4-(Hexyl-methyl-amino)benzylidene] 4-oxo-2-thioxo-thiazolidin-3-yl}-ethanesulfonic acid]
6.1 µM and 10 µM	–	191 to 192 °C	2140 nM	–	CCCCN(CCCC)c1ccc(/C=C2\SC(=S)N(CCS(=O)(=O)NC(=O)c3ccc(F)cc3)C2=O)cc1 [Example 26, (Z) 2-[5-(4-Dibutylamino-benzytidene)-4-oxo-2-thioxo-thiazolidin-3-yl]-ethanesulfonic acid 4-fluoro-benzoylamide]
> 100 µM	> 100000 nM	–	3390 nM	8 µM	CCCCCCN(C)c1ccc(/C=C2\SC(=S)N(CS(=O)(=O)O)C2=O)cc1 [Example 15, (Z) {5-[4-(n-Hexylmethylamine)-benzylidene]-4-oxo-2-thioxo-thiazolidin-3-yl}-methanesulfonic acid]
> 100 µM	–	219 to 222 °C	2910 nM	> 100 µM	CCCCN(CCCC)c1ccc(/C=C2\SC(=S)N(CC(=O)NS(C)(=O)=O)C2=O)cc1 [Example 21, (Z) N-{2-[5-(4-Dibutylamino-benzylidene)-4-oxo-2-thioxo-thiazolidin-3-yl]-acetyl}-methanesulfonamide]
> 100 µM	1000 nM	–	1720 nM	23 µM	CCCCCCN(C)c1ccc(/C=C2\SC(=S)N(CCS(=O)(=O)O)C2=O)cc1 [Example 1, (Z) 2-{5[4-(Hexyl-methyl-amino)benzylidene] 4-oxo-2-thioxo-thiazolidin-3-yl}-ethanesulfonic acid]
–	2000 nM	–	2040 nM	> 100 µM	CCCCN(CCCC)c1ccc(/C=C2\SC(=S)N(Cc3nnn[nH]3)C2=O)cc1 [Example 20, (Z) 5-(4-Dibutylamino-benzylidene)-3(H-tetrazol-5-ylmethyl)-2-thioxo-thiazolidin-4-one]
> 100 µM	220 nM	–	> 100000 nM	30 µM	CCCCCCN(C)c1ccc(/C=C2\SC(=S)N(CCNC(C)=O)C2=O)cc1 [Example 14]
> 100 µM	1000 nM	–	2550 nM	46 µM	O=C1/C(=C/c2ccc(N3CCC4CCCCC4C3)cc2)SC(=S)N1Cc1cc(=O)c(O)co1 (stereo not shown) [Example 32, (Z) 3-(5-Hydroxy-4-oxo-4H-pyran-2-ylmethyl)-5-[4-(octahydro-isoquinolin-2-yl)benzylidene]-2-thioxo-thiazolidin-4-one]

Compound	IC50 (Aβ(1-40) [1])	IC50 (Aβ(1-40) [2])	melting point	IC50 (Aβ(1-42))	IC50 [3]
(Z) 2-[5-(4-Hexyl-methyl-amino-benzylidene)-4-oxo-2-thioxo-thiazolidin-3-yl]-ethanesulfonic acid 4-fluoro-benzoylamide [Example 40]	–	–	–	2840 nM	–
